Laboratory results reported in patent US7906491B2 (Univisitair Medisch Centrum Utrecht, priority 2002, dated 2011).

Legend:
Epac1-ΔDEP1 = target: T1, Epac1-ΔDEP1 (Homo sapiens, UniProt O95398); experiment: In vitro GEF assay: Epac activity in the exchange reaction towards Rap (mantGDP-loaded Rap1b); type: biochemical; settings: in vitro in the exchange reaction towards Rap; further: key: +++: activity comparible to I-007; ++: activity between I-007 and cAMP; +: activity comparible to cAMP; ±: activity less than cAMP
T1 sequence (O95398 191-923 limits assumed): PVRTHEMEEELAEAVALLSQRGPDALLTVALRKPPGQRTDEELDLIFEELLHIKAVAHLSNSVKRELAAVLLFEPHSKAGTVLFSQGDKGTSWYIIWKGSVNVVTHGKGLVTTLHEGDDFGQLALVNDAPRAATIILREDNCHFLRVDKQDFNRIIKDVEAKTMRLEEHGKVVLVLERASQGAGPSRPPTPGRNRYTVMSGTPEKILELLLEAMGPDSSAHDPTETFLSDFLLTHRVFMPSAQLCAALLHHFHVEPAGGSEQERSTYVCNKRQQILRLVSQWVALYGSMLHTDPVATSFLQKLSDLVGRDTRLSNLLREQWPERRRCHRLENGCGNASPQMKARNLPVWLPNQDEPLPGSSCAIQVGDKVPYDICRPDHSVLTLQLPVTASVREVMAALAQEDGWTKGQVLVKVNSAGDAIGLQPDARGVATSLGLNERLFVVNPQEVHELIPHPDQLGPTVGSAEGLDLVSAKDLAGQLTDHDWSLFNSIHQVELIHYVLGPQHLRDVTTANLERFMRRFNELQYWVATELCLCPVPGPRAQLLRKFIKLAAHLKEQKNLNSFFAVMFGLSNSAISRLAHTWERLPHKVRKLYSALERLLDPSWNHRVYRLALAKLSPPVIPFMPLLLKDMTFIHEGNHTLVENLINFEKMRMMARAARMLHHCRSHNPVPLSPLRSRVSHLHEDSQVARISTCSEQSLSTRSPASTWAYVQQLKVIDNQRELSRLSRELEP
Experimental: In vitro GEF assays were performed as described (3,16). […] Buffer conditions were 50 mM Tris pH7.4, 150 mM NaCl, 5% glycerol, 5 mM DTE, 60 μM GTP. Reactions were carried out in 96-well plates and measured in a Cary Eclipse from Varian Inc., using the manufacturers software.

Epac = target: T2, Epac (Homo sapiens, UniProt O95398); experiment: Relative affinity for Epac (cAMP = 1), in vitro; type: binding; settings: relative to cAMP = 1
T2 sequence (O95398 1-923): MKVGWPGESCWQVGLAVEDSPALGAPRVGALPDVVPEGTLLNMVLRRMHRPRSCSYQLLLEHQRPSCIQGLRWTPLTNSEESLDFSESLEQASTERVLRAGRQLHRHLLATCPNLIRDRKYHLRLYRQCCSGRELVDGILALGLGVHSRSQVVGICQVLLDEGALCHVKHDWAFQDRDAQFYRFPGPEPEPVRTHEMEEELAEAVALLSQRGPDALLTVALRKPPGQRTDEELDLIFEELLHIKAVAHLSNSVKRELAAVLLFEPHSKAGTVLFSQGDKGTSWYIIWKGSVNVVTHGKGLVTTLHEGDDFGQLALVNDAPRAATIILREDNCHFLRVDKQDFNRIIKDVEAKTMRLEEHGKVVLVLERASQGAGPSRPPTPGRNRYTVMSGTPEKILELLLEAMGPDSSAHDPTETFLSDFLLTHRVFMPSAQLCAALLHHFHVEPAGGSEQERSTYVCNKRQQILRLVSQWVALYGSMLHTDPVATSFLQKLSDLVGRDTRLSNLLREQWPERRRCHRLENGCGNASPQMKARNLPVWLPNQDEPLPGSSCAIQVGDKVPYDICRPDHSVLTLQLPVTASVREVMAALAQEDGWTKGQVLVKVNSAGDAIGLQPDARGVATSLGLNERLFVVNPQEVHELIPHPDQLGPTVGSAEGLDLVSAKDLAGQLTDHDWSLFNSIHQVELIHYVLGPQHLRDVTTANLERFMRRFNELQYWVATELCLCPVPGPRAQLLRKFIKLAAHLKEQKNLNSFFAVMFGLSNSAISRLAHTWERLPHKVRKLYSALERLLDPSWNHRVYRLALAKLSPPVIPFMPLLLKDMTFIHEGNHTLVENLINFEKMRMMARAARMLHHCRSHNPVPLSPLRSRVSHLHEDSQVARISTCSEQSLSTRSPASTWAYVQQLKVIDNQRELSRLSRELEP

PKAI = experiment: Relative affinity for PKAI (cAMP = 1), in vitro; type: binding; settings: relative to cAMP = 1
PKAII = experiment: Relative affinity for PKAII (cAMP = 1), in vitro; type: binding; settings: relative to cAMP = 1

Molecule | Relative activity of Epac* (Epac1-ΔDEP1) | Relative affinity CAMP = 1 Epac (Epac) | Relative affinity CAMP = 1 PKAI (PKAI) | Relative affinity CAMP = 1 PKAII (PKAII)
2′-O-ethyladenosine-3′,5′-cyclic monophosphate [Compound I-008] | + | 0.05 | 0.0043 | –
2′-O-isobutyladenosine-3′,5′-cyclic monophosphate [Compound I-011] | ± | 0.017 | 0.0009 | –
2′-O-methyladenosine-3′,5′-cyclic monophosphate [Compound I-005] | – | 0.12 | 0.005 | 0.005
2′-O-n-butyladenosine-3′,5′-cyclic monophosphate [Compound I-010] | + | 0.03 | 0.0008 | –
2′-O-propyladenosine-3′,5′-cyclic monophosphate [Compound I-009] | + | 0.03 | 0.001 | –
2′-deoxyadenosine-3′,5′-cyclic monophosphate [Compound I-001] | + | 0.0025 | 0.00013 | 0.000088
8-(2,3,5,6-tetrafluoro-phenylthio)-2′-O-methyladenosine-3′,5′-cyclic monophosphate [Compound I-124] | ++ | 4.7 | – | –
8-(2,4-dichloro-phenylthio)-2′-O-methyladenosine-3′,5′-cyclic monophosphate [Compound I-126] | ++ | 3.1 | – | –
8-(2-amino-ethylthio)-2′-O-methyladenosine-3′,5′-cyclic monophosphate [Compound I-118] | ± | 0.34 | – | –
8-(2-hydroxy-ethylthio)-2′-O-methyladenosine-3′,5′-cyclic monophosphate [Compound I-116] | + | 1.2 | – | –
8-(3-methoxy-phenylthio)-2′-O-methyladenosine-3′,5′-cyclic monophosphate [Compound I-122] | + | 2 | – | –
8-(4-Chloro-phenylthio)-inosine-3′,5′-cyclic monophosphate [Compound I-139] | + | – | – | –
8-(4-chloro-phenylthio)-2′-(N,N-dimethyl)-carbamoyl-adenosine-3′,5′-cyclic monophosphate [Compound I-127] | – | <0.002 | – | –
8-(4-chloro-phenylthio)-2′-O-methyladenosine-3′,5′-cyclic monophosphorothioate, Rp-isomer [Compound I-130] | ± | 0.06 | – | –
8-(4-chloro-phenylthio)-2′-O-methyladenosine-3′,5′-cyclic monophosphorothioate, Sp-isomer [Compound I-134] | + | – | – | –
8-(4-chloro-phenylthio)-2′-deoxyadenosine-3′,5′-cyclic monophosphorothioate, Rp-isomer [Compound I-137] | + | – | – | –
8-(4-chloro-phenylthio)-2′-deoxyadenosine-3′,5′-cyclic monophosphorothioate, Sp-isomer [Compound I-138] | + | – | – | –

Molecule | Relative activity of Epac* (Epac1-ΔDEP1) | Relative affinity CAMP = 1 Epac (Epac) | Relative affinity CAMP = 1 PKAI (PKAI) | Relative affinity CAMP = 1 PKAII (PKAII)
8-(4-hydroxy-phenylthio)-2′-O-methyladenosine-3′,5′-cyclic monophosphate [Compound I-125] | +++ | 6.4 | – | –
8-(4-isopropyl-phenylthio)-2′-O-methyladenosine-3′,5′-cyclic monophosphate [Compound I-123] | ++ | 4.8 | – | –
8-(4-methyl-phenylthio)-2′-O-methyladenosine-3′,5′-cyclic monophosphate [Compound I-121] | +++ | 5.1 | – | –
8-(benzimidazolyl-2-thio)-2′-O-methyladenosine-3′,5′-cyclic monophosphate [Compound I-115] | + | 0.09 | – | –
8-(benzothiazolyl-2-thio)-2′-O-methyladenosine-3′,5′-cyclic monophosphate [Compound I-120] | + | 0.17 | – | –
8-(pyridinyl-2-thio)-2′-O-methyladenosine-3′,5′-cyclic monophosphate [Compound I-119] | ++ | 0.8 | – | –
8-benzyloxy-2′-O-methyladenosine-3′,5′-cyclic monophosphate [Compound I-132] | + | 0.18 | – | –
8-bromo-2′-O-methyladenosine-3′,5′-cyclic monophosphorothioate, Rp-isomer [Compound I-129] | ± | 0.05 | – | –
8-bromo-2′-O-methyladenosine-3′,5′-cyclic monophosphorothioate, Sp-isomer [Compound I-133] | + | – | – | –
8-bromo-2′-deoxyadenosine-3′,5′-cyclic monophosphorothioate, Rp-isomer [Compound I-135] | + | – | – | –
8-chloro-2′-O-methyladenosine-3′,5′-cyclic monophosphate [Compound I-141] | – | 0.92 | 0.012 | 0.0002
8-cyclohexylamino-2′-deoxyadenosine-3′,5′-cyclic monophosphate [Compound I-140] | + | – | – | –
8-methoxy-2′-O-methyladenosine-3′,5′-cyclic monophosphate [Compound I-131] | + | 0.36 | – | –
8-phenylethylamino-2′-O-methyladenosine-3′,5′-cyclic monophosphate [Compound I-111] | ± | 0.08 | – | –
O=[P@]1(O)OC[C@H]2O[C@@H](n3c(Sc4ccc(Cl)cc4)nc4c(Nc5ccccc5)ncnc43)C[C@@H]2O1 [Compound I-004, 8-(4-chloro-phenylthio)-N^6-phenyl-2′-deoxyadenosine-3′,5′-cyclic monophosphate] | – | 0.5 | 0.03 | 0.26
CCSc1nc2c(N)ncnc2n1C1OC2COP(=O)(O)OC2C1OC (centres unmarked) [Compound I-117, 8-ethylthio-2′-O-methyladenosine-3′,5′-cyclic monophosphate] | + | 1.8 | – | –
Nc1ncnc2c1nc(Br)n2[C@H]1C[C@@H]2O[P@@](=O)(S)OC[C@H]2O1 [Compound I-136, 8-bromo-2′-deoxyadenosine-3′,5′-cyclic monophosphorothioate, Sp-isomer] | + | – | – | –
